Broadly, the IC50 is the midpoint of a concentration-inhibition curve.

One assay concerns the target T1, purified human HDAC6 (Homo sapiens, UniProt Q9UBN7).
T1 construct: purchased BPS Bioscience 5006
T1 sequence (Q9UBN7 1-1215): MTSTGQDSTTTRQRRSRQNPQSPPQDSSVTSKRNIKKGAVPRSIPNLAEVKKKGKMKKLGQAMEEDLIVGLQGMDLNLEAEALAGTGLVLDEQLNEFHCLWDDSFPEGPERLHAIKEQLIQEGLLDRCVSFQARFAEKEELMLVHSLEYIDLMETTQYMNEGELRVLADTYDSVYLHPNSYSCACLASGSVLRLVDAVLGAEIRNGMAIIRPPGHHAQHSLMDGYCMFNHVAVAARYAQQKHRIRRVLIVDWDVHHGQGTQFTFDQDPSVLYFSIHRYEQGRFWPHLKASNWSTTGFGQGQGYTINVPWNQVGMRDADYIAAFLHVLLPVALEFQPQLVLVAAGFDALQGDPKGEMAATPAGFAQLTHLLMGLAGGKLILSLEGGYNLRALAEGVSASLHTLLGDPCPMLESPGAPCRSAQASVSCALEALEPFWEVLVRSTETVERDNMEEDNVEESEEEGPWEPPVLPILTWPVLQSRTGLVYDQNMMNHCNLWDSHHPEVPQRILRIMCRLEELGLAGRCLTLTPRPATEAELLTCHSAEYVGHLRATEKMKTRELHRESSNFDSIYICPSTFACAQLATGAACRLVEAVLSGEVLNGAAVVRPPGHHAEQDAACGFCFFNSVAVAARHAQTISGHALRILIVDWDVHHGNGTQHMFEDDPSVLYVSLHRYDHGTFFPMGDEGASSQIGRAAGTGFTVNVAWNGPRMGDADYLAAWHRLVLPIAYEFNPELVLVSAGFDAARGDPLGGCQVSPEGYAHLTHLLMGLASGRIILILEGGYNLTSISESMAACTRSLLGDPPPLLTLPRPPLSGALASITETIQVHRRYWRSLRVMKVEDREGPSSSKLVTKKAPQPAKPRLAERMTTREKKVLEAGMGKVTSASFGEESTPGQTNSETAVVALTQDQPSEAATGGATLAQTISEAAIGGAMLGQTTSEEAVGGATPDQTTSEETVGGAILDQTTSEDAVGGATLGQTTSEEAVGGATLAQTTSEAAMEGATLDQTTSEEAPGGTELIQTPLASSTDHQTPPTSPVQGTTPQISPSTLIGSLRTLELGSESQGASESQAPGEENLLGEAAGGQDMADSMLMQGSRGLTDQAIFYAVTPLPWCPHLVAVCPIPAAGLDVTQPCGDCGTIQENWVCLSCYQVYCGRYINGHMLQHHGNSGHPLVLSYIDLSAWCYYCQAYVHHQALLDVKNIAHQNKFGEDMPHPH
The assay can be described thus: HDAC6 Enzyme Assay. The note with it: bin: greater than 500 nM and less than 1 μM (lower bound in nM, upper bound in μM). Format: biochemical. Put shortly: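 Deacetylated product quantified after trypsin digestion as released AMC (340/460 nm), following a 1 h, 30 °C reaction of human HDAC6 with Ac-RGK(Ac)-AMC peptide, quenched by trichostatin A. IC50 derived from DMSO-normalized curves.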
Turning to `Cc1nc(C(F)(F)F)c(C(=O)NC(c2ccc(C(=O)NO)cc2)C(C)C)s1` (stereo not shown) [Compound I-139, N-(1-{4-[(hydroxyamino)carbonyl]phenyl}-2-methylpropyl)-2-methyl-4-(trifluoromethyl)-1,3-thiazole-5-carboxamide], the IC50 lay within 500 to 1000 nM. For the compound `CC(NC(=O)c1cccc(S(C)(=O)=O)c1)c1cccc(C(=O)NO)c1` (stereo not shown) [Compound I-199, N-(1-{3-[(hydroxyamino)carbonyl]phenyl}ethyl)-3-(methylsulfonyl)benzamide], the IC50 was 500 to 1000 nM.

The assay is the same for the next values; noted with them: bin: greater than 1 μM.
With `Cc1cc(C(=O)NO)ccc1C(C)NC(=O)C(C)(C)C` (stereo not shown) [Compound I-490, 4-{1-[(2,2-dimethylpropanoyl)amino]ethyl}-N-hydroxy-3-methylbenzamide], the IC50 was greater than 1000 nM.

Turning to `C[C@@H](NC(=O)NC12CC3CC(CC(C3)C1)C2)c1cccc(C(=O)NO)c1` [Compound I-343, 3-[(1R)-1-({[1-adamantylamino]carbonyl}amino)ethyl]-N-hydroxybenzamide], the IC50 is greater than 1000 nM.

For `CC(C)[C@@H](NS(=O)(=O)c1ccc(C(F)(F)F)cc1)c1ccc(C(=O)NO)cc1` [Compound I-189, N-hydroxy-4-[(1R)-2-methyl-1-({[4-(trifluoromethyl)phenyl]sulfonyl}amino)propyl]benzamide], the IC50 is greater than 1000 nM.

The same assay, now with this note: purified human HDAC6, substrate Ac-Arg-Gly-Lys(Ac)-AMC, 1 hour at 30° C.; reported as bins.
For the compound `O=C(N[C@H](c1ccc(C(=O)NO)cc1)C(F)(F)F)NC12CC3CC(CC(C3)C1)C2` [Compound I-105, 4-((1R)-1-{[(1-adamantylamino)carbonyl]amino}-2,2,2-trifluoroethyl)-N-hydroxybenzamide], the IC50 was 100 to 500 nM. Still for that read-out and setting: the same measure for `CC(NC(=O)C1=Cc2ccccc2OC1)c1ccc(C(=O)NO)cc1` (stereo not shown) [Compound I-224, N-(1-{4-[(hydroxyamino)carbonyl]phenyl}ethyl)-2H-chromene-3-carboxamide]: less than 100 nM; for `CCC[C@@H](NC(=O)c1ccc(OC)cc1)c1ccc(C(=O)NO)cc1` [Compound I-146, N-((1R)-1-{4-[(hydroxyamino)carbonyl]phenyl}butyl)-4-methoxybenzamide]: less than 100 nM. In the case of `COc1ccc(C(=O)N[C@H](C)c2cccc(C(=O)NO)c2)cc1` [Compound I-193, N-hydroxy-3-{(1R)-1-[(4-methoxybenzoyl)amino]ethyl}benzamide], the IC50 was in the range of 100 to 500 nM.

In turn, `CC(NC(=O)c1cccn1C)c1ccc(C(=O)NO)cc1` (stereo not shown) [Compound I-356, N-(1-{4-[(hydroxyamino)carbonyl]phenyl}ethyl)-1-methyl-1H-pyrrole-2-carboxamide] gave an IC50 of less than 100 nM. `Cc1ccc2[nH]c(C(=O)NC(C)c3cccc(C(=O)NO)c3)cc2c1` (stereo not shown) [Compound I-342, N-(1-{3-[(hydroxyamino)carbonyl]phenyl}ethyl)-5-methyl-1H-indole-2-carboxamide] registered an IC50 of 100 to 500 nM. Regarding `CC(C)C(NC(=O)c1cc2ccccc2o1)c1ccc(C(=O)NO)cc1` (stereo not shown) [Compound I-32, N-(1-{4-[(hydroxyamino)carbonyl]phenyl}-2-methylpropyl)-1-benzofuran-2-carboxamide], the IC50 is less than 100 nM. Still for that read-out and setting: the same measure for `CC(C)[C@@H](NC(=O)c1ccc(-c2ccccc2)cc1)c1ccc(C(=O)NO)cc1` [Compound I-341, N-((1R)-1-{4-[(hydroxyamino)carbonyl]phenyl}-2-methylpropyl)biphenyl-4-carboxamide]: less than 100 nM; for `CCc1cc(C(=O)NC(c2ccc(C(=O)NO)cc2)C(C)(C)C)n(C)n1` (stereo not shown) [Compound I-318, 3-ethyl-N-(1-{4-[(hydroxyamino)carbonyl]phenyl}-2,2-dimethylpropyl)-1-methyl-1H-pyrazole-5-carboxamide]: 100 to 500 nM. `Cc1ccc2[nH]c(C(=O)NC(c3ccc(C(=O)NO)cc3)C(C)C)cc2c1` (stereo not shown) [Compound I-69, N-(1-{4-[(hydroxyamino)carbonyl]phenyl}-2-methylpropyl)-5-methyl-1H-indole-2-carboxamide] had an IC50 of less than 100 nM. Compound `CC(NC(=O)C1CCCC1)c1ccc(C(=O)NO)cc1` (stereo not shown) [Compound I-88, 4-{1-[(cyclopentylcarbonyl)amino]ethyl}-N-hydroxybenzamide] showed an IC50 of less than 100 nM.

Values taken from patent US9382197B2, “Substituted hydroxamic acids and uses thereof” (Millennium Pharmaceuticals, Inc., priority 2010, dated 2016).
